Measured values published in patent publication US20220315591A1, “NEW EGFR INHIBITORS” (Hoffmann-La Roche Inc., priority 2019, published 2022).
pIC50: −log10 of the molar value.

target: T1, EGFR TMLRCS (BaF3-TMLRCS cell line) (Homo sapiens, UniProt P00533, C797S/L858R/T790M); assay: HTRF Phospho EGFR TMLRCS assay (cellular); assay type: cell-based; details: BaF3-TMLRCS cells, 4 hours incubation
T1 construct: host or cells: Ba/F3 (BaF3-TMLRCS), puromycin-selected
Experimental: HTRF Phospho EGFR TMLRCS Assay (Cellular)
BaF3-TMLRCS cell line were obtained from Crownbio (San Diego, Calif., USA). Cells were maintained at 37° C., 5% CO2 in RPMI ATCC (Gibco 31870)+2 mM Glutamine+0.5 μg/ml Puromycin supplemented with 10% fetal bovine serum (FBS) (Gibco).
Cells are transferred as above to Greiner Bio-One, Nr. 784-08 micro-titerplate at 20000 cells/well in 12.5 μl of growth medium/well after the plates had been pre-filled with 12.5 nl of DMSO solutions of the to be tested compounds (in dose response) or DMSO only. After spinning the plates at 300×g for 30 seconds the cells were incubated for 4 hours at 37 C, 5% CO2, 95% humidity. The cells were lysed by adding to the compound mix 4 μl/well of the supplemented lysis buffer (Cis-bio, Phospho-EGFR HTRF kit, 64EG1PEH), followed by incubation for 30 min at room temperature with shaking (400 rpm). The plates were then frozen and stored overnight at −80 C. On the next day and after thawing the plates, 4 μl of a mixture of anti-Phospho-EGFR Cryptate and of anti-Phospho-EGFR-d2 antibody solutions prepared in the supplied detection buffer was added to each well. The lidded plates were then incubated for 4 h at room temperature before reading the fluorescence emission at 616 and 665 nm using an Envision reader (Perkin Elmer). Data was analyzed in similar fashion as above using the normalized ratio of the 665 to 616 signals multiplied by 10000.

T1 sequence (P00533 25-1210 T790M/C797S/L858R): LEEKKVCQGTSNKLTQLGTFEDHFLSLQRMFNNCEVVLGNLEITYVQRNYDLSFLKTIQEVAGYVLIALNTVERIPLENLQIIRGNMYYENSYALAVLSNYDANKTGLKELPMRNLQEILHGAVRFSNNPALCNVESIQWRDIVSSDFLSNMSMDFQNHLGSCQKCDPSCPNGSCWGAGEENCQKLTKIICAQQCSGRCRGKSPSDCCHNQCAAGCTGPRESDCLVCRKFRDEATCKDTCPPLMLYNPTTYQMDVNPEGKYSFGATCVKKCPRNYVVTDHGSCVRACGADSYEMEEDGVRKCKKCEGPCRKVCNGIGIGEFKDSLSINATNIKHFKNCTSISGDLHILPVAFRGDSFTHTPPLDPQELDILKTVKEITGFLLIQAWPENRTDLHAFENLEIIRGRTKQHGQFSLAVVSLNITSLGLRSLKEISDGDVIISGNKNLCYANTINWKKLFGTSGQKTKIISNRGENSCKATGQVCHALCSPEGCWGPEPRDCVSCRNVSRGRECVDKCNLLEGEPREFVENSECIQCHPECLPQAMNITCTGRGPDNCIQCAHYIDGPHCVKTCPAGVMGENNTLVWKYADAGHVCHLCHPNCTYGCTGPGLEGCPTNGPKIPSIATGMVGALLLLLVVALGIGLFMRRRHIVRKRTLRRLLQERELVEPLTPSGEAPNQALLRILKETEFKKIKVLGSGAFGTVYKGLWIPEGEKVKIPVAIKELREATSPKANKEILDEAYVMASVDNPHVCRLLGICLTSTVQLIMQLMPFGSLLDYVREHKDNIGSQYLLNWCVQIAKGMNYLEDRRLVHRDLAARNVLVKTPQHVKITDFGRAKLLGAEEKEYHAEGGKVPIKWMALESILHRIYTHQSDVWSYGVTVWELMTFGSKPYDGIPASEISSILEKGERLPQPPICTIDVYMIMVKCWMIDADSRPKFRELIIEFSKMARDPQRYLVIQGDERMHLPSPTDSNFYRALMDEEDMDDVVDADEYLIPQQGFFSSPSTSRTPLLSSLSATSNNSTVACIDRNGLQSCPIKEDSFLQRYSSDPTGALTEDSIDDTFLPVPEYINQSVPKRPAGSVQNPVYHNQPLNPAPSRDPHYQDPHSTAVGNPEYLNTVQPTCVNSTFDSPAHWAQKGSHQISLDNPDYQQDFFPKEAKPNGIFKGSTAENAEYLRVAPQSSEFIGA

**Q.** With `O=C(Nc1nccs1)C(c1ncn2c1C[C@@H](F)C2)N1Cc2c(cc(C#Cc3ccc(CN4CCC(CO)CC4)cc3)cc2C(F)(F)F)C1=O` (mixture of isomers) [Example 6, (2RS)-2-[(6R)-6-Fluoro-6,7-dihydro-5H-pyrrolo[1,2-c]imidazol-1-yl]-2-[6-[2-[4-[[4-(hydroxymethyl)-1-piperidyl]methyl]phenyl]ethynyl]-1-oxo-4-(trifluoromethyl)isoindolin-2-yl]-N-thiazol-2-yl-acetamide] as the compound, how does the pIC50 read?
**A.** 9.00

**Q.** How did the pIC50 turn out when `CCN1CCC(c2ccc(-c3cc4c(c(C(F)F)c3)CN(C(C(=O)Nc3nccs3)c3ncn5c3C[C@@H](F)C5)C4=O)cc2)CC1` (mixture of isomers) [Example 7, (2RS)-2-[4-(Difluoromethyl)-6-[4-(1-ethyl-4-piperidyl)phenyl]-1-oxo-isoindolin-2-yl]-2-[(6R)-6-fluoro-6,7-dihydro-5H-pyrrolo[1,2-c]imidazol-1-yl]-N-thiazol-2-yl-acetamide] was run?
**A.** 7.80

**Q.** How did the pIC50 turn out when `O=C(Nc1nccs1)C(c1ncn2c1C[C@@H](F)C2)N1Cc2c(cc(C#Cc3ccc(CN4CC5(CC(O)C5)C4)cc3)cc2C(F)(F)F)C1=O` (mixture of isomers) [Example 9, (2RS)-2-[(6R)-6-Fluoro-6,7-dihydro-5H-pyrrolo[1,2-c]imidazol-1-yl]-2-[6-[2-[4-[(6-hydroxy-2-azaspiro[3.3]heptan-2-yl)methyl]phenyl]ethynyl]-1-oxo-4-(trifluoromethyl)isoindolin-2-yl]-N-thiazol-2-yl-acetamide] was run?
**A.** 8.52

**Q.** With `O=C(Nc1nccs1)C(c1ncn2c1C[C@@H](F)C2)N1Cc2c(cc(C#Cc3ccc(CN4CCC(CO)CC4)cc3)cc2C(F)F)C1=O` (mixture of isomers) [Example 10, (2RS)-2-[4-(Difluoromethyl)-6-[2-[4-[[4-(hydroxymethyl)-1-piperidyl]methyl]phenyl]ethynyl]-1-oxo-isoindolin-2-yl]-2-[(6R)-6-fluoro-6,7-dihydro-5H-pyrrolo[1,2-c]imidazol-1-yl]-N-thiazol-2-yl-acetamide] as the compound, how does the pIC50 read?
**A.** 8.70

**Q.** How did the pIC50 turn out when `O=C(Nc1nccs1)C(c1ncn2c1C[C@@H](F)C2)N1Cc2c(cc(C#Cc3ccc(CN4CCCC(O)CC4)cc3)cc2C(F)(F)F)C1=O` (mixture of isomers) [Example 11, (2RS)-2-[(6R)-6-fluoro-6,7-dihydro-5H-pyrrolo[1,2-c]imidazol-1-yl]-2-[6-[2-[4-[[(4RS)-4-hydroxyazepan-1-yl]methyl]phenyl]ethynyl]-1-oxo-4-(trifluoromethyl)isoindolin-2-yl]-N-thiazol-2-yl-acetamide] was run?
**A.** 8.70

**Q.** `CCN1CCC(c2ccc(-c3cc4c(c(C(F)(F)F)c3)CN(C(C(=O)Nc3nccs3)c3ncn5c3CCC5)C4=O)cc2)CC1` (racemic) [Example 2, (2RS)-2-(6,7-Dihydro-5H-pyrrolo[1,2-c]imidazol-1-yl)-2-[6-[4-(1-ethyl-4-piperidyl)phenyl]-1-oxo-4-(trifluoromethyl)isoindolin-2-yl]-N-thiazol-2-yl-acetamide] was tested. Which pIC50 did it give?
**A.** 7.70

**Q.** With `O=C(Nc1nccs1)C(c1ncn2c1CCC2)N1Cc2c(cc(C#Cc3ccc(CN4CCC(CO)CC4)cc3)cc2C(F)(F)F)C1=O` (racemic) [Example 3, (2RS)-2-(6,7-Dihydro-5H-pyrrolo[1,2-c]imidazol-1-yl)-2-[6-[2-[4-[[4-(hydroxymethyl)-1-piperidyl]methyl]phenyl]ethynyl]-1-oxo-4-(trifluoromethyl)isoindolin-2-yl]-N-thiazol-2-yl-acetamide] as the compound, how does the pIC50 read?
**A.** 9.00

**Q.** `CCN1CCC(c2ccc(-c3cc4c(c(C(F)F)c3)CN(C(C(=O)Nc3nccs3)c3ncn5c3CCC5)C4=O)cc2)CC1` (racemic) [Example 4, (2RS)-2-[4-(Difluoromethyl)-6-[4-(1-ethyl-4-piperidyl)phenyl]-1-oxo-isoindolin-2-yl]-2-(6,7-dihydro-5H-pyrrolo[1,2-c]imidazol-1-yl)-N-thiazol-2-yl-acetamide] was tested. Which pIC50 did it give?
**A.** 7.96

**Q.** How did the pIC50 turn out when `O=C(Nc1nccs1)C(c1ncn2c1CCC2)N1Cc2c(cc(C#Cc3ccc(CN4CCC(CO)CC4)cc3)cc2C(F)F)C1=O` (racemic) [Example 5, (2RS)-2-[4-(Difluoromethyl)-6-[2-[4-[[4-(hydroxymethyl)-1-piperidyl]methyl]phenyl]ethynyl]-1-oxo-isoindolin-2-yl]-2-(6,7-dihydro-5H-pyrrolo[1,2-c]imidazol-1-yl)-N-thiazol-2-yl-acetamide] was run?
**A.** 8.52

**Q.** How did the pIC50 turn out when `CCN1CCC(c2ccc(-c3cc4c(c(C(F)F)c3)CN(C(C(=O)Nc3nccs3)c3ncn5c3CCC5)C4=O)cc2)[C@@H](F)C1` (mixture of isomers) [Example 8, (2RS)-2-[4-(Difluoromethyl)-6-[4-1(3R,4R)-1-ethyl-3-fluoro-4-piperidyl]phenyl]-1-oxo-isoindolin-2-yl]-2-(6,7-dihydro-5H-pyrrolo[1,2-c]imidazol-1-yl)-N-thiazol-2-yl-acetamide and (2RS)-2-[4-(difluoromethyl)-6-[4-1(3S,4S)-1-ethyl-3-fluoro-4-piperidyl]phenyl]-1-oxo-isoindolin-2-yl]-2-(6,7-dihydro-5H-pyrrolo[1,2-c]imidazol-1-yl)-N-thiazol-2-yl-acetamide] was run?
**A.** 7.74
